Laboratory results as given in patent US20060135589A1, “1h-Indazole-3-carboxamide compounds as cyclin dependent kinase (cdk) inhibitors” (Astex Technology, Inc., priority 2002, published 2006).

Target: T1, CDK2/CyclinA (Homo sapiens, UniProt P24941)
T1 construct: purchased Upstate Biotechnology
Test: Measurement of CDK2 kinase inhibitory activity (IC50), 33P-ATP / histone H1 filter assay
Type: biochemical
Experimental: Measurement of CDK2 Kinase Inhibitory Activity (IC50)
Compounds of the invention were tested for kinase inhibitory activity using the following protocol.
1.7 μl of active CDK2/CyclinA (Upstate Biotechnology, 10 U/μl) is diluted in assay buffer (250 μl of 10× strength assay buffer (200 mM MOPS pH 7.2, 250 mM β-glycerophosphate, 50 mM EDTA, 150 mM MgCl2), 11.27 μl 10 mM ATP, 2.5 μl 1M DTT, 25 μl 100 mM sodium orthovanadate, 708.53 μl H2O), and 10 μl mixed with 10 μl of histone substrate mix (60 μl bovine histone H1 (Upstate Biotechnology, 5 mg/ml), 940 μl H2O, 35 μCi γ^33P-ATP) and added to 96 well plates along with 5 μl of various dilutions of the test compound in DMSO (up to 2.5%). The reaction is allowed to proceed for 5 hours before being stopped with an excess of ortho-phosphoric acid (30 μl at 2%).
γ^33P-ATP which remains unincorporated into the histone H1 is separated from phosphorylated histone H1 on a Millipore MAPH filter plate. The wells of the MAPH plate are wetted with 0.5% orthophosphoric acid, and then the results of the reaction are filtered with a Millipore vacuum filtration unit through the wells. Following filtration, the residue is washed twice with 200 μl of 0.5% orthophosphoric acid. Once the filters have dried, 25 μl of Microscint 20 scintillant is added, and then counted on a Packard Topcount for 30 seconds.

Structure (SMILES): CC(=O)NCc1ccc(NC(=O)c2n[nH]c3ccc(Cl)cc23)cc1 [Example 65, 5-Chloro-1H-indazole-3-carboxylic acid [4-(acetylamino-methyl)-phenyl]-amide]
- inhibition at 50 µM: ≥ 50%

Structure (SMILES): O=C(NC1CCN(C(=O)C(F)(F)F)CC1)c1n[nH]c2ccccc12 [Example 66, 1H-Indazole-3-carboxylic acid [1-(2,2,2 trifluoro-acetyl)-Piperidin-4-yl]-amide]
- inhibition at 50 µM: ≥ 50%

Structure (SMILES): O=C(NC1CCNCC1)c1n[nH]c2ccccc12 [Example 67, 1H-Indazole-3-carboxylic acid piperidin-4-ylamide]
- inhibition at 50 µM: ≥ 50%

Structure (SMILES): CC(=O)N1CCC(NC(=O)c2n[nH]c3ccccc23)CC1 [Example 68, 1H-Indazole-3-carboxylic acid (1-acetyl-piperidin-4-yl)-amide]
- inhibition at 50 µM: ≥ 50%

Structure (SMILES): CS(=O)(=O)N1CCC(NC(=O)c2n[nH]c3ccccc23)CC1 [Example 69, 1H-Indazole-3-carboxylic acid (1-methanesulphonyl-piperidin-4-yl)-amide]
- inhibition at 50 µM: ≥ 50%

Structure (SMILES): O=C(Nc1ccc(F)cc1)c1n[nH]c2ccccc12 [Example 70, 1H-Indazole-3-carboxylic acid (4-fluoro-phenyl)-amide]
- inhibition at 50 µM: ≥ 50%

Structure (SMILES): O=C(Nc1ccc(F)cc1)c1n[nH]c2cccc(Br)c12 [Example 71, 4-Bromo-1H-indazole-3-carboxylic acid (4-fluoro-phenyl)-amide]
- inhibition at 50 µM: ≥ 50%

Structure (SMILES): Cc1ccc2[nH]nc(C(=O)Nc3ccc(F)cc3)c2c1 [Example 72, 5-Methyl-1H-indazole-3-carboxylic acid (4-fluoro-phenyl)-amide]
- inhibition at 50 µM: ≥ 50%

Structure (SMILES): O=C(Nc1ccc(F)cc1)c1n[nH]c2cc(Br)ccc12 [Example 73, 6-Bromo-1H-indazole-3-carboxylic acid (4-fluoro-phenyl)-amide]
- inhibition at 50 µM: ≥ 50%

Structure (SMILES): O=C(Nc1ccc(N2CCOCC2)cc1)c1n[nH]c2ccc(Cl)cc12 [Example 74]
- inhibition at 50 µM: ≥ 50%

Structure (SMILES): O=C(Nc1cccc(-c2nnn[nH]2)c1)c1n[nH]c2ccc(Cl)cc12 [Example 75]
- inhibition at 50 µM: ≥ 50%

Structure (SMILES): CS(=O)(=O)c1cccc(NC(=O)c2n[nH]c3ccc([N+](=O)[O-])cc23)c1 [Example 78]
- inhibition at 50 µM: ≥ 50%

Structure (SMILES): O=C(Nc1ccccc1)c1n[nH]c2ccc(F)cc12 [Example 80]
- inhibition at 50 µM: ≥ 50%

Structure (SMILES): COC(=O)N1CCC(NC(=O)c2n[nH]c3ccc(Cl)cc23)C1 (stereo not drawn) [Example 81, 3-[(5-Chloro-1H-indazole-3-carbonyl)-amino]-pyrrolidine-1-carboxylic acid methyl ester]
- inhibition at 50 µM: ≥ 50%

Structure (SMILES): O=C(Nc1ccccc1)c1n[nH]c2ccc(N3CCCC3)cc12 [Example 84, 5-pyrrolidin-1-yl-1H-indazole-3-carboxylic acid phenylamide]
- inhibition at 50 µM: ≥ 50%

Structure (SMILES): O=C(Nc1ccccc1)c1n[nH]c2ccc(-c3ccccc3-c3ccccc3)cc12 [Example 85, 5-Biphenyl-2-yl-1H-indazole-3-carboxylic acid phenylamide]
- inhibition at 50 µM: ≥ 50%

Structure (SMILES): O=C(Nc1ccccc1)c1n[nH]c2ccc(N3CCCS3(=O)=O)cc12 [Example 86, 5-(1,1-Dioxo-1lambda*6*-isothiazolidin-2-yl)-1H-indazole-3-carboxylic acid phenylamide]
- inhibition at 50 µM: ≥ 50%

Structure (SMILES): O=C(Nc1ccccc1)c1n[nH]c2ccc(CCc3ccccc3)cc12 [Example 87, 5-Phenethyl-1H-indazole-3-carboxylic acid phenylamide]
- inhibition at 50 µM: ≥ 50%
